Key:
[1] = Pharmacokinetics of multiple oral doses once daily for 12 days in patients with type 2 diabetes
[2] = male, human, in vivo, po

CC#CCn1c(N2CCC[C@@H](N)C2)nc2c1c(=O)n(Cc1nc(C)c3ccccc3n1)c(=O)n2C [BI 1356]
excretion route and form ([1]; human, in vivo): primarily excreted unchanged via the bile
main excretion organ ([1]; therapeutic oral dose levels): mainly excreted via the liver
excreted unchanged in urine and feces [2]: 90 % of excreted radioactivity
parent compound share of sample radioactivity in plasma [2]: 74 % of sample radioactivity
